Assay results reported in patent US20220396569A1 (Carmot Therapeutics, Inc., priority 2021, published 2022).
pEC50: −log10 of the molar value.

biological target: T1, human GLP-1 receptor (Homo sapiens, UniProt P43220); assay: GLP-1R cAMP Assay (HitHunter cAMP accumulation); type: cell-based; conditions: cAMP accumulation, CHO cells stably overexpressing human GLP-1 receptor, 30 min treatment; read-out: EC50
T1 construct: expressed in transfected cells
Outline: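 CHO cells stably expressing human GLP-1R, 10,000 cells/well in HBSS with 10 mM HEPES and 625 μM IBMX, were mixed with anti-cAMP antibody reagent. Compound was applied as a 20-point dose response in triplicate for 30 min. After lysis and overnight detection, luminescence was read and dose-response curves analysed.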

T1 sequence (P43220 24-463): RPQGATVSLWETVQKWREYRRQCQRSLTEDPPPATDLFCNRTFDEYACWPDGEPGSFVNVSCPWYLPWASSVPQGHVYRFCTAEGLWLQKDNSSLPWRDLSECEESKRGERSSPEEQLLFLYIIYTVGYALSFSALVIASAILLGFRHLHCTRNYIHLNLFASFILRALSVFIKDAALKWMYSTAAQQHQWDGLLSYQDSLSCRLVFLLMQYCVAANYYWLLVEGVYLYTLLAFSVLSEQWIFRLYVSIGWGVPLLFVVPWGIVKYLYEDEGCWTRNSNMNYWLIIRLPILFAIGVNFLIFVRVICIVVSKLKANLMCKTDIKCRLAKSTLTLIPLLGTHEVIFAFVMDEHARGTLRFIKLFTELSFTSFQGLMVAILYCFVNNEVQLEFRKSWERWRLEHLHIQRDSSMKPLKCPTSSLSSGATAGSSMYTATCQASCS

First: N#Cc1ccc(OCc2nc([C@@H]3CCN(Cc4nc5c(F)cc(C(=O)O)cc5n4C[C@@H]4CCO4)C3)ccc2F)c(F)c1 [Compound 454, 2-{[(3R)-3-{6-[(4-cyano-2-fluorophenoxy)methyl]-5-fluoropyridin-2-yl}pyrrolidin-1-yl]methyl}-4-fluoro-1-{[(2S)-oxetan-2-yl]methyl}-1H-1,3-benzodiazole-6-carboxylic acid]
Second: N#Cc1ccc(OCc2nc([C@H]3CCN(Cc4nc5c(F)cc(C(=O)O)cc5n4C[C@@H]4CCO4)C3)ccc2F)c(F)c1 [Compound 455, 2-{[(3S)-3-{6-[(4-cyano-2-fluorophenoxy)methyl]-5-fluoropyridin-2-yl}pyrrolidin-1-yl]methyl}-4-fluoro-1-{[(2S)-oxetan-2-yl]methyl}-1H-1,3-benzodiazole-6-carboxylic acid]
The pEC50 of the first is higher: over 7.30 for the first, 6.30 to 7.30 for the second. The first is the more potent here.

`N#Cc1ccc(OCc2nc(C3C[C@H](CF)N(Cc4nc5ccc(C(=O)O)cc5n4C[C@@H]4CCO4)C3)ccc2F)c(F)c1` (mixture of isomers) [Compound 528, 2-(((2R)-4-(6-((4-Cyano-2-fluorophenoxy)methyl)-5-fluoropyridin-2-yl)-2-(fluoromethyl)pyrrolidin-1-yl)methyl)-1-(((S)-oxetan-2-yl)methyl)-1H-benzo[d]imidazole-6-carboxylic acid] and `N#Cc1ccc(OCc2nc(C34CC3CN(Cc3nc5ccc(C(=O)O)cc5n3C[C@@H]3CCO3)C4)ccc2F)c(F)c1` (mixture of isomers) [Example 522, 2-((1-(6-((4-Cyano-2-fluorophenoxy)methyl)-5-fluoropyridin-2-yl)-3-azabicyclo[3.1.0]hexan-3-yl)methyl)-1-(((S)-oxetan-2-yl)methyl)-1H-benzo[d]imidazole-6-carboxylic acid] cannot be ordered by pEC50: over 7.30 for the first, over 7.30 for the second.

Going from `N#Cc1ccc(OCc2nc(N3CCN(Cc4nc5ccc(C(=O)O)cc5n4C[C@@H]4CCO4)C3=O)ccc2F)c(F)c1` [Compound 535, (S)-2-((3-(6-((4-Cyano-2-fluorophenoxy)methyl)-5-fluoropyridin-2-yl)-2-oxoimidazolidin-1-yl)methyl)-1-(oxetan-2-ylmethyl)-1H-benzo[d]imidazole-6-carboxylic acid] to `O=C(O)c1ccc2nc(CN3CC(=Cc4cccc(COc5ccc(Cl)cc5Cl)c4)C3)n(C[C@@H]3CCO3)c2c1` [Compound 195], the pEC50 rises from under 6.30 to over 7.30. The second is the more potent here.

`O=C(O)c1cc(F)c2nc(CN3CC[C@H](c4ccnc(COc5ccc(Cl)cc5F)c4)C3)n(C[C@@H]3CCO3)c2c1` (single isomer, unassigned) [Example 427] and `N#Cc1ccc(OCc2cc(Oc3ccc(Cc4nc5c(F)cc(C(=O)O)cc5n4C[C@@H]4CCO4)c(F)c3)ccn2)c(F)c1` [Compound 537, 2-{[4-({2-[(4-cyano-2-fluorophenoxy)methyl]pyridin-4-yl}oxy)-2-fluorophenyl]methyl}-4-fluoro-1-{[(2S)-oxetan-2-yl]methyl}-1H-1,3-benzodiazole-6-carboxylic acid] cannot be ordered by pEC50: over 7.30 for the first, over 7.30 for the second.

`CCn1cncc1Cn1c(CN2C[C@H](Oc3ccnc(COc4ccc(Cl)cc4Cl)c3)[C@@H]2C)nc2ccc(C(=O)O)cc21` [Compound 273, 2-{[(2S,3S)-3-({2-[(2,4-dichlorophenoxy)methyl]pyridin-4-yl}oxy)-2-methylazetidin-1-yl]methyl}-1-[(1-ethyl-1H-imidazol-5-yl)methyl]-1H-1,3-benzodiazole-6-carboxylic acid] and `CCn1cncc1Cn1c(CN2CC(=Cc3ccnc(COc4ccc(Cl)cc4C#N)c3)C2)nc2ccc(C(=O)O)cc21` [Compound 226, 2-{[3-({2-[(4-chloro-2-cyanophenoxy)methyl]pyridin-4-yl}methylidene)azetidin-1-yl]methyl}-1-[(1-ethyl-1H-imidazol-5-yl)methyl]-1H-1,3-benzodiazole-6-carboxylic acid] cannot be ordered by pEC50: over 7.30 for the first, over 7.30 for the second.
